Patent US12263248B2, “Compounds and compositions for intracellular delivery of therapeutic agents” (ModernaTX, Inc., priority 2018, dated 2025)

What was measured:
luciferase (Luc) mRNA [1] = assay: Luc expression (total flux) after intramuscular administration; format: in vivo, mice; settings: for Total flux, 0.001 mpk Dose / Total flux, 0.01 mpk Dose / Total flux (p/s) 0.01 mpk Dose: 6 hours after intramuscular administration; for Total flux, 0.001 mpk Dose / Total flux, 0.01 mpk Dose: Luc mRNA and H10 mRNA; for Novel lipid/MC3 expression ratio, 6 hr. time point, i.m. Luc: relative to MC3 formulation; for AUC (p/s * h) / Lipid/MC3 AUC: Table 3H, Luc; for Total flux (p/s) 0.01 mpk Dose: Table 5B; for i.m. Lipid/MC3 0.01 mpk, Luc, 6 h: Table 3B
How it was run: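 Mice given a single intramuscular dose of lipid nanoparticle formulations carrying modified Luc mRNA, alone or with H10 mRNA, at 0.001 or 0.01 mpk total. Luciferase expression recorded as total flux.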

[2] = Encapsulation efficiency of RNA (QUANT-IT RIBOGREEN RNA assay); format: physicochemical
How it was run: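 RiboGreen fluorescence (ex ~480, em ~520 nm) compared between intact samples and Triton X-100-lysed samples after 15 min at 37 °C in TE buffer, pH 7.5. Percent free RNA is the blank-corrected intact/disrupted ratio.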

luciferase (Luc) mRNA [3] = assay: Luc expression, whole body bioluminescence after intravenous administration to mice; format: in vivo; settings: for Fold increase in total body Luc Flux relative to MC3 at 6 h: Table 3A; for Fold increase in total body Luc Flux relative to MC3 at 6 h / flux measured at 6 h relative to the MC3 formulation: i.v. administration; for Total Flux 3 hours / Total Flux 6 hours / Total Flux 24 hours / total flux at 3 hours / i.v. Lipid/MC3 0.5 mpk, Luc, 6 h: i.v.; for Total Flux 3 hours / Total Flux 6 hours / Total Flux 24 hours / total flux at 3 hours: 0.5 mg/kg; for Total Flux 3 hours / Total Flux 6 hours / Total Flux 24 hours: Luc mRNA; for total flux at 3 hours: comparison in words; for Novel lipid/MC3 ratio, 6 hr. timepoint, i.v. / Novel lipid/MC3 expression ratio, 6 hr. time point, i.v.: luciferase; for Novel lipid/MC3 ratio, 6 hr. timepoint, i.v.: relative to MC3, Table 3G; for Novel lipid/MC3 expression ratio, 6 hr. time point, i.v.: relative to MC3 formulation; for flux measured at 6 h relative to the MC3 formulation: in words; for i.v. Lipid/MC3 0.5 mpk, Luc, 6 h: Table 3B
How it was run: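 Luc mRNA nanoparticle formulations given intravenously to mice (n=6) at 0.5 mg/kg; whole-body bioluminescence imaged at 3, 6 and 24 h. CD-1 mice received IP D-luciferin (200 μL of 15 mg/mL) 15 min before imaging; total flux quantified by region of interest.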

[4] = Apparent (surface) pKa of the LNP formulation (TNS assay); format: physicochemical
How it was run: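 LNP (0.04 mg/mL mRNA) mixed with TNS reagent in 21 buffers spanning about pH 3-12, in triplicate; fluorescence plotted against pH as sigmoidal curve. Apparent pKa taken as […] curve inflection point; validated in 1× PBS and 20 mM Tris w/8% sucrose.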

[5] = lipid nanoparticle, ±SD within one assay run (Table 37)
[6] = Table 1B, formulated with hEPO mRNA
[7] = Table 1C, compositions for subcutaneous administration
[8] = Table 1D, for subcutaneous administration, # formulated with hEPO mRNA
[9] = Table 1E, compositions for subcutaneous administration

SMILES	Total flux, 0.001 mpk Dose (luciferase (Luc) mRNA [1]; 0.001 mpk) [p/s]	Total flux, 0.01 mpk Dose (luciferase (Luc) mRNA [1]; 0.01 mpk) [p/s]	EE (%) ([2]; Table 1A)	Fold increase in total body Luc Flux relative to MC3 at 6 h (luciferase (Luc) mRNA [3])	Total Flux 3 hours (luciferase (Luc) mRNA [3]; mice)	Total Flux 6 hours (luciferase (Luc) mRNA [3]; mice)	Total Flux 24 hours (luciferase (Luc) mRNA [3]; mice)	pKa ([4]; Table 1A)	Novel lipid/MC3 expression ratio, 6 hr. time point, i.m. Luc (luciferase (Luc) mRNA [1]; intramuscular)	EE (%) [2, 6] [%]	% EE [2, 8] [%]	Novel lipid/MC3 expression ratio, 6 hr. time point, i.v. (luciferase (Luc) mRNA [3]; intravenous)	AUC (p/s * h) (luciferase (Luc) mRNA [1]; intramuscular)	Lipid/MC3 AUC (luciferase (Luc) mRNA [1]; intramuscular)	% EE [2, 9] [%]	also measured
CCCCCCCCC(CCCCCCCC)OC(=O)CCCCCCCN(CCO)CCCCCCCC(=O)OCC1CC1CCCCCC (stereo not drawn) [Compound 28, Heptadecan-9-yl 8-((8-((2-hexylcyclopropyl)methoxy)-8-oxooctyl)(2-hydroxyethyl)amino)octanoate]	6.73E+05	5.56E+06	97.03	2.46	8.98E+10	1.13E+11	1.20E+09	6.04								total flux at 3 hours (luciferase (Luc) mRNA [3]; mice): highest
CCCCCCCCC(CCCCCCCC)OC(=O)CCCCCCCN(CCO)CCCCCCCC(=O)OC(CCCCCCCC)CCCCCCCC [Compound 29, Di(heptadecan-9-yl) 8,8′-((2-hydroxyethyl)azanediyl)dioctanoate]	7.64E+05	1.12E+07	96.99	0.78	4.61E+09	2.89E+09	3.55E+08	6.00								Fold increase in Luc expression relative to MC3, Intramuscular (0.001 mpk dose) (luciferase (Luc) mRNA [1]; intramuscular, 0.001 mpk): 0.11; Fold increase in Luc expression relative to MC3, Intramuscular (0.01 mpk dose) (luciferase (Luc) mRNA [1]; intramuscular, 0.01 mpk): 0.25; % Encapsulation [2, 5]: 97.0 ± 0.6%; Fold increase in Luc expression relative to MC3, Intravenous (0.5 mpk dose) (luciferase (Luc) mRNA [3]; intravenous, 0.5 mpk): 1.03; luciferase activity relative to MC3 LNP control (luciferase (Luc) mRNA [3]; mice, intravenous, 0.5 mg/kg (mRNA dose)): lower luciferase activity; surface pKa ([4]; LNP, Example 26): 6.00; pKa ([4]; Table 6): 6.00; pKa [4, 5]: 6.00 ± 0.24
CCCCCCCCCOC(=O)CCCCCCCN(CCO)CCCCCCCOC(=O)C(CCCCCCCC)CCCCCCCC [Compound 30, 7-((2-Hydroxyethyl)(8-(nonyloxy)-8-oxooctyl)amino)heptyl 2-octyldecanoate]	2.47E+06	3.77E+07	95.69	2.49	1.19E+10	2.09E+10	1.21E+09	6.75	4.69	96.32	93.1	2.49				% EE [2, 7]: 93.0%; Novel lipid/MC3 ratio, 6 hr. timepoint, i.v. (luciferase (Luc) mRNA [3]; intravenous): 2.49; Apparent pKa ([4]; Table 3G): 6.75
CCCCCCCCC(C)OC(=O)CCCCCCCN(CCO)CCCCCCCC(=O)OC(CCCCCCCC)CCCCCCCC (stereo not drawn) [Compound 48, decan-2-yl 8-((8-(heptadecan-9-yloxy)-8-oxooctyl)(2-hydroxyethyl)amino)octanoate]	4.69E+05	8.78E+06	96.55	10.0	8.73E+10	1.10E+11	2.92E+09	6.68			96.2					EE ([2]; nanoparticle composition with hEPO mRNA (Table 30)): 91.92%; Lipid/MC3 Luc expression (luciferase (Luc) mRNA [3]; 0.5 mpk dose to mouse, 6 hours after administration): 10.0; flux measured at 6 h relative to the MC3 formulation (luciferase (Luc) mRNA [3]): ten times higher; total flux at 3 hours (luciferase (Luc) mRNA [3]; mice): highest
CCCCCCCCC(CC)OC(=O)CCCCCCCN(CCO)CCCCCCCC(=O)OC(CCCCCCCC)CCCCCCCC (stereo not drawn) [Compound 49, heptadecan-9-yl 8-((2-hydroxyethyl)(8-oxo-8-(undecan-3-yloxy)octyl)amino)octanoate]			89.52	9.81	4.48E+10	1.08E+11	1.24E+09	6.52	12.99		96.2	9.81	7.54E+09	12.82		flux measured at 6 h relative to the MC3 formulation (luciferase (Luc) mRNA [3]): ten times higher
CCCCCCCCC(CCC)OC(=O)CCCCCCCN(CCO)CCCCCCCC(=O)OC(CCCCCCCC)CCCCCCCC (stereo not drawn) [Compound 50, dodecan-4-yl 8-((8-(heptadecan-9-yloxy)-8-oxooctyl)(2-hydroxyethyl)amino)octanoate]	6.56E+05	1.13E+07	97.33	6.81	3.81E+10	7.49E+10	5.02E+08	6.42								flux measured at 6 h relative to the MC3 formulation (luciferase (Luc) mRNA [3]): higher flux than MC3 formulations
CCCC/C=C\CCC(CC/C=C\CCCC)OC(=O)CCCCCCCN(CCO)CCCCCCCC(=O)OCCCCCCCCC [Compound 60, (5Z,12Z)-Heptadeca-5,12-dien-9-yl 8-((2-hydroxyethyl)(8-(nonyloxy)-8-oxooctyl)amino)octanoate]			97.6		7.91E+10	9.04E+10	2.90E+09	6.73	2.93	95.20	93.0	3.37			88	Total flux (p/s) 0.01 mpk Dose (luciferase (Luc) mRNA [1]; 0.01 mpk): 9.48E+07 p/s
CCCC/C=C\CCC(CC/C=C\CCCC)OC(=O)CCCCCCCN(CCO)CCCCCC(=O)OCCCCCCCCCCC [Compound 61, (5Z,12Z)-heptadeca-5,12-dien-9-yl 8-((2-hydroxyethyl)(6-oxo-6-(undecyloxy)hexyl)amino)octanoate]			97.40		6.54E+10	6.20E+10	1.78E+09	6.70	3.51			2.31	2.30E+09	3.91	96	
CCCCCCCCC(CC)OC(=O)CCCN(CCO)CCCCCCCC(=O)OC(CCCCCCCC)CCCCCCCC (stereo not drawn) [Compound 72, Heptadecan-9-yl 8-((2-hydroxyethyl)(4-oxo-4-(undecan-3-yloxy)butyl)amino)octanoate]			94.69		1.73E+10	4.07E+10	7.12E+08	6.29	1.03			1.52	6.48E+08	1.10		% EE [2, 7]: 94.9%; Novel lipid/MC3 ratio, 6 hr. timepoint, i.v. (luciferase (Luc) mRNA [3]; intravenous): 1.52
CCCCCCCCC(CC)OC(=O)CCCCCN(CCO)CCCCCCCC(=O)OC(CCCCCCCC)CCCCCCCC (stereo not drawn) [Compound 75, Heptadecan-9-yl 8-((2-hydroxyethyl)(6-oxo-6-(undecan-3-yloxy)hexyl)amino)octanoate]			92.3		3.51E+10	8.80E+10	2.13E+09	6.67	1.22			3.29	1.29E+09	2.20		% EE [2, 7]: 94.9%; Novel lipid/MC3 ratio, 6 hr. timepoint, i.v. (luciferase (Luc) mRNA [3]; intravenous): 3.29
CCCCCCCCCOC(=O)CCCCCCCN(CCCCCCCC(=O)OC(CCCCCCCC)CCCCCCCC)CCCNC(C)=O [Compound 108, Heptadecan-9-yl 8-((3-acetamidopropyl)(8-(nonyloxy)-8-oxooctyl)amino)octanoate]			96		5.04E+09	5.53E+09	1.50E+08	7.17	14.2	95.38					96	Luc expression upon intramuscular administration (luciferase (Luc) mRNA [1]; 0.01 mpk, in words): highest expression; i.m. Lipid/MC3 0.01 mpk, Luc, 6 h (luciferase (Luc) mRNA [1]; 0.01 mpk): 14.2; Total flux (p/s) 0.01 mpk Dose (luciferase (Luc) mRNA [1]; 0.01 mpk): 4.60E+08 p/s; flux measured at 6 h relative to the MC3 formulation (luciferase (Luc) mRNA [1]; intramuscular administration (i.m.), in words): fourteen; i.v. Lipid/MC3 0.5 mpk, Luc, 6 h (luciferase (Luc) mRNA [3]; 0.5 mpk): 0.4
CCCCCCCCCOC(=O)CCCCCCCN(CCCCCCCC(=O)OC(CCCCCCCC)CCCCCCCC)CCCNS(C)(=O)=O [Compound 109, Heptadecan-9-yl 8-((3-(methylsulfonamido)propyl)(8-(nonyloxy)-8-oxooctyl)amino)octanoate]			98.6		3.82E+09	4.88E+09	8.06E+07	6.78	3.65	98.29					98	i.m. Lipid/MC3 0.01 mpk, Luc, 6 h (luciferase (Luc) mRNA [1]; 0.01 mpk): 3.6; Total flux (p/s) 0.01 mpk Dose (luciferase (Luc) mRNA [1]; 0.01 mpk): 1.18E+08 p/s; i.v. Lipid/MC3 0.5 mpk, Luc, 6 h (luciferase (Luc) mRNA [3]; 0.5 mpk): 0.3
